From US20060173022A1, “Heterocyclic amides, method for the production thereof, substances containing said heterocyclic amides, and use thereof as pesticides” (Bayer CropScience GmbH, priority 2003, published 2006)

CO/N=C/CCNC(=O)c1cnccc1C(F)(F)F [Example I, N-(4-Trifluoromethylnicotinoyl)-3-aminopropionaldehyde O-methyl oxime]
melting point: 80 to 82 °C
